Test results as given in US20240024403A1, “Compositions and Methods for Managing Weight” (Unigen, Inc., priority 2012, published 2024).

Assay: High fat diet induced obesity (DIO) mouse model
Type: in vivo, C57CL/6J mice
Conditions: for Total Body Weight / Body Weight: in g (unit assumed)
Experimental: C57CL/6J mice aged 4-6 weeks (Korea Research Institute of Bioscience & Biotechnology, Ohchang, Korea) were housed in Polycarbonate cages (five mice per cage) in a room with a 12 hr:12 hr light-dark cycle and an ambient temperature of 24° C. All the mice were fed a commercial chow diet for 1 week after arrival in the animal facility. Mice were then divided into normal and obesity groups and fed with normal diet (ND) and high fat diets (HFD) respectively. The HFD group was divided into multiple treatment groups: a high fat diet vehicle group (HFD), an orlistat (purchased as OTC drug Alli®) positive control treatment group (ORI, 40 mg/kg of animal weight, 2 times/day) and optionally a sibutramine positive control treatment group (10 mg/kg, 1 time/day). The HFD contained 340 g of fat/kg of HFD (310 g lard plus 30 g soybean oil; Harlan Laboratories, USA). The HFD was formulated to provide 60% of the total energy generated by the diet from fat by replacing carbohydrate energy with lard and soybean oil, whereas the normal diet (ND) group was fed a diet providing only 18% of the total diet energy from fat(Harlan Laboratories, USA).
Body weight was measured once each week and feed intake was measured twice per week. At the end of the experimental period, following a 12 hr. fasting period, the animals were anesthetized with ether, and blood was drawn from the abdominal vein. Liver and kidney and adipose tissues (epididymal, retroperitoneal, perirenal adipose tissues) were removed from each animal, rinsed with physiological saline, and weighed. Serum concentrations of glucose, total cholesterol, triglycerides, and LDL-cholesterol were determined using automatic analyzer (INTEGRA 400, Roche, Germany). Statistical significance of test results was measured using the Student's t-test.

[1] = week 3, mice fed a high fat diet, Mutamba fractions 250 mg/kg oral 2 times per day, mean
[2] = week 4, DIO mice, oral twice daily, mg/kg/day: ORI 40, Combo (Composition 1A) 800, Magnolia 100, Yerba Mate 500, Morus 200
[3] = week 4, DIO mice, combination (5:1) 1200 mg/kg twice a day by gavage, group mean
[4] = week 4, mice fed a high fat diet, Mutamba fractions 250 mg/kg oral 2 times per day, mean
[5] = week 5, DIO mice, oral twice daily, mg/kg/day: ORI 40, Combo (Composition 1A) 800, Magnolia 100, Yerba Mate 500, Morus 200
[6] = week 5, DIO mice, combination (5:1) 1200 mg/kg twice a day by gavage, group mean
[7] = week 5, mice fed a high fat diet, Mutamba fractions 250 mg/kg oral 2 times per day, mean
[8] = week 6, DIO mice, oral twice daily, mg/kg/day: ORI 40, Combo (Composition 1A) 800, Magnolia 100, Yerba Mate 500, Morus 200
[9] = week 6, DIO mice, combination (5:1) 1200 mg/kg twice a day by gavage, group mean
[10] = week 6, mice fed a high fat diet, Mutamba fractions 250 mg/kg oral 2 times per day, mean
[11] = week 7, DIO mice, oral twice daily, mg/kg/day: ORI 40, Combo (Composition 1A) 800, Magnolia 100, Yerba Mate 500, Morus 200
[12] = week 7, DIO mice, combination (5:1) 1200 mg/kg twice a day by gavage, group mean
[13] = week 7, mice fed a high fat diet, Mutamba fractions 250 mg/kg oral 2 times per day, mean
[14] = week 8, DIO mice, oral twice daily, mg/kg/day: ORI 40, Combo (Composition 1A) 800, Magnolia 100, Yerba Mate 500, Morus 200
[15] = week 8, mice fed a high fat diet, Mutamba fractions 250 mg/kg oral 2 times per day, mean

In the case of CCCCCCCCCCC[C@@H](C[C@@H]1OC(=O)[C@H]1CCCCCC)OC(=O)[C@H](CC(C)C)NC=O [ORI, orlistat], the “Total Body Weight” value (week 3, DIO mice, combination (5:1) 1200 mg/kg twice a day by gavage, group mean) is reported as 35.12, the “Total Body Weight” value (week 3, ORI 40 mg/kg, DIO mice (Table 52)) is reported as 37.41 and the “Total Body Weight” value (week 3, ORI 40 mg/kg, DIO mice) is reported as 35.66. The “Body Weight Gain” value (week 3, ORI 40 mg/kg, mice fed high fat diet) was −6.70, the “Body Weight Gain” value [1] was −2.63 and the “Body Weight” value [1] was 37.14. For the same compound, the “Weight Gain” value (week 3, orlistat 40 mg/kg oral) was −5.27, the “Weight Gain” value [2] was −3.84 and the “Total Body Weight” value [2] was 36.38. The “Body Weight Gain” value (week 4, DIO mice, SIB 10 mg/kg, ORI 40 mg/kg, Mutamba extract 32 (G1) 1000 mg/kg/day oral, mean) was −2.35, the “Body Weight Gain” value (week 4, DIO mice, SIB 10 mg/kg, ORI 40 mg/kg, Mutamba extract 33-2 G1 1000 mg/kg, mean) was −1.28 and the “Weight Gain” value (week 4, DIO mice, combination (1:1) 2000 mg/kg twice a day, group mean) was −2.61. For the same compound, the “Weight Gain” value [3] was −2.61, the “Total Body Weight” value [3] was 35.84 and the “Total Body Weight” value (week 4, ORI 40 mg/kg, DIO mice (Table 52)) was 37.60. The “Total Body Weight” value (week 4, ORI 40 mg/kg, DIO mice) was 37.28, the “Body Weight Gain” value (week 4, ORI 40 mg/kg, mice fed high fat diet) was −5.01 and the “Body Weight Gain” value [4] was −1.28. For the same compound, the “Body Weight” value [4] was 38.49, the “Weight Gain” value (week 4, orlistat 40 mg/kg oral) was −3.47 and the “Weight Gain” value [5] was −2.57. The “Total Body Weight” value [5] was 37.65, the “Body Weight Gain” value (week 5, DIO mice, SIB 10 mg/kg, ORI 40 mg/kg, Mutamba extract 32 (G1) 1000 mg/kg/day oral, mean) was −1.84 and the “Body Weight Gain” value (week 5, DIO mice, SIB 10 mg/kg, ORI 40 mg/kg, Mutamba extract 33-2 G1 1000 mg/kg, mean) was 0.43. The “Weight Gain” value (week 5, DIO mice, combination (1:1) 2000 mg/kg twice a day, group mean) was −2.04, the “Weight Gain” value [6] was −2.04 and the “Total Body Weight” value [6] was 36.41. The “Total Body Weight” value (week 5, ORI 40 mg/kg, DIO mice (Table 52)) was 38.12, the “Total Body Weight” value (week 5, ORI 40 mg/kg, DIO mice) was 38.57 and the “Body Weight Gain” value (week 5, ORI 40 mg/kg, mice fed high fat diet) was −3.81. The “Body Weight Gain” value [7] was 0.43, the “Body Weight” value [7] was 40.19 and the “Weight Gain” value (week 5, orlistat 40 mg/kg oral) was −2.34. For the same compound, the “Weight Gain” value [8] was −1.47, the “Total Body Weight” value [8] was 38.75 and the “Body Weight Gain” value (week 6, DIO mice, SIB 10 mg/kg, ORI 40 mg/kg, Mutamba extract 32 (G1) 1000 mg/kg/day oral, mean) was 0.08. For the same compound, the “Body Weight Gain” value (week 6, DIO mice, SIB 10 mg/kg, ORI 40 mg/kg, Mutamba extract 33-2 G1 1000 mg/kg, mean) was 3.52, the “Weight Gain” value (week 6, DIO mice, combination (1:1) 2000 mg/kg twice a day, group mean) was −1.65 and the “Weight Gain” value [9] was −1.65. For the same compound, the “Total Body Weight” value [9] was 36.80, the “Total Body Weight” value (week 6, ORI 40 mg/kg, DIO mice (Table 52)) was 40.04 and the “Total Body Weight” value (week 6, ORI 40 mg/kg, DIO mice) was 40.03. For the same compound, the “Body Weight Gain” value (week 6, ORI 40 mg/kg, mice fed high fat diet) was −2.36, the “Body Weight Gain” value [10] was 3.52 and the “Body Weight” value [10] was 43.28. The “Weight Gain” value (week 6, orlistat 40 mg/kg oral) was −1.08, the “Weight Gain” value [11] was −0.26 and the “Total Body Weight” value [11] was 39.96. The “Body Weight Gain” value (week 7, DIO mice, SIB 10 mg/kg, ORI 40 mg/kg, Mutamba extract 32 (G1) 1000 mg/kg/day oral, mean) was 1.81, the “Body Weight Gain” value (week 7, DIO mice, SIB 10 mg/kg, ORI 40 mg/kg, Mutamba extract 33-2 G1 1000 mg/kg, mean) was 3.72 and the “Weight Gain” value [12] was −0.07. The “Total Body Weight” value [12] was 38.38, the “Total Body Weight” value (week 7, ORI 40 mg/kg, DIO mice (Table 52)) was 41.77 and the “Total Body Weight” value (week 7, ORI 40 mg/kg, DIO mice) was 40.91. The “Body Weight Gain” value (week 7, ORI 40 mg/kg, mice fed high fat diet) was −1.42, the “Body Weight Gain” value [13] was 3.72 and the “Body Weight” value [13] was 43.49. The “Weight Gain” value (week 7, orlistat 40 mg/kg oral) was 0.02, the “Weight Gain” value [14] was −0.23 and the “Total Body Weight” value [14] was 39.99. The “Body Weight Gain” value (week 8, DIO mice, SIB 10 mg/kg, ORI 40 mg/kg, Mutamba extract 32 (G1) 1000 mg/kg/day oral, mean) was 2.10, the “Body Weight Gain” value (week 8, DIO mice, SIB 10 mg/kg, ORI 40 mg/kg, Mutamba extract 33-2 G1 1000 mg/kg, mean) was 5.13 and the “Total Body Weight” value (week 8, ORI 40 mg/kg, DIO mice (Table 52)) was 42.06. The “Body Weight Gain” value [15] was 5.13 and the “Body Weight” value [15] was 44.90.
